In patent US6541619B1 (Daewoong Pharmaceutical Co., Ltd., priority 1997, dated 2003):

Assays:
CHO-K1 cells = assay: Cytotoxicity to CHO-K1 cells that do not express hEGF receptors (MTT); format: cell-based; settings: CHO-K1, serum-free media, 2 days
Description: Cells were cultured on 96 well plates at 1×10^4 cells/ml for 1 day, and received serum-free media containing control and samples, and incubated for additional 2 days. Survival rate of the cells was measured with MTT, in an analogous manner as in Example 15(see: Table 4).

yeast t-RNA = assay: RNase activity on yeast t-RNA (OD 260 nm); format: biochemical; settings: relative to angiogenin; 37° C., 2 hours
Description: 50 μl of sample containing a fusion protein was mixed with 50 μl of yeast t-RNA mixture containing reaction buffer composed of 120 mM HEPES, 120 mM NaCl, 0.004% BSA and incubated at 37° C. for 2 hours. Reaction was interrupted by an equal volume of 6% perchloric acid. Subsequently, the reaction mixture was centrifuged for 10 minutes and used to measure optical density at 260 nm from which the standard curve was made to measure RNase activity. Activities of the samples were compared with that of angiogenin(see: Table 2).

MCF-7 = assay: Cytotoxicity to breast cancer cells in vitro (MTT); format: cell-based, human; settings: MCF-7, serum-free media, 2 days
Description: In order to evaluate activity of the fusion protein in vitro, breast cancer cell line, MCF-7(ATCC-HTB22), was cultured in DMEM supplemented with 10% FBS. Cells were plated on 96-well plates at 1×10^4 cells/ml and cultured for 1 day. Medium was replaced with serum free-media containing control, sample, and 5-fluorouracil(for comparison) and cultured for 2 days, survival rate was measured with MTT(3-([…]-2-yl)-2,5-diphenyltetrazolium bromide), and IC50 was calculated(see: Table 3).

A431 tumor = assay: Anticancer effect in vivo, A431 tumor transplanted in nude mouse
Description: To evaluate anticancer activity of the fusion protein in vivo, A431 cultured cells were transferred subcutaneously to the abdominal region of an immunodeficient nude mouse(20-25 g body weight) at 2×10^7 in 0.2 ml. When the proper size of tumor was formed, tumor was removed from the mouse under sterilization condition and cut into pieces of 2-3 mm to be transferred subcutaneously with a troca. When the size of the transplanted tumor of the nude mouse reached […], mice were divided into 5 groups(6 mice in one group) for i.v. injection. 100 μg/kg body weight of the fusion protein and angiogenin were administered by i.v. injection every 3 day for 4 weeks. After final administration, the area of the tumor-surface was measured by vernier calipers.
The tumor cells were excised after 4 weeks and measured for the weight(see: Table 5).

Molecule	IC50 (CHO-K1 cells; Cricetulus griseus, 48 h) [µM]	RNase Activity(%) (yeast t-RNA)	IC50 (MCF-7) [µM]	IC50 (CHO-K1 cells) [µM]	Mean tumor-surface B (after 4 weeks) (A431 tumor; 100 μg/kg i.v. every 3 day for 4 weeks, after 4 weeks) [mm^2]	Mean tumor-surface A (on the day of administration) (A431 tumor; 100 μg/kg i.v. every 3 day for 4 weeks, day of administration) [mm^2]	Mean tumor-surface B/A (A431 tumor; ratio of surface after 4 weeks to day of administration)	Mean tumor weight (A431 tumor; tumor excised after 4 weeks, 100 μg/kg i.v. every 3 day) [g]
O=c1[nH]cc(F)c(=O)[nH]1 [5-fluorouracil, reference compound]	0.0495	–	–	–	–	–	–	–
Angiogenin: human angiogenin, 14.4 kD protein consisting of 123 amino acids, ribonuclease superfamily, SEQ ID No:2	–	100%	> 0.1	> 0.1	477.2 ± 6.7	79.3 ± 2.1	6.0	5.0 ± 0.7
hEGF-angiogenin: fusion protein of EGF-angiogenin expressed from pTE4083, SEQ ID No:19	–	65-90%	–	–	–	–	–	–
